The term inhibition denotes the share of the control response that was lost under treatment. A lower inhibition goes with a weak effect. As usually defined, the IC50 is the midpoint of a concentration-inhibition curve. A higher IC50 goes with a need for much substance.

The target of one data set is T1, BACE1 (Homo sapiens, UniProt P56817).
T1 construct: purchased Sino Biological, Beijing, China
Kind of data set: β-Secretase (BACE1) inhibition assay (FRET). The data set is classed as biochemical. As to conditions: at a concentration of 400 µM; mean ± SEM, n = 3. How it is done: All ascorbic derivatives (2a–2c and 5a–5c), at a concentration of 400 µM, were evaluated for β-secretase inhibitory activities by using the FRET assay. Briefly, the reaction composing 30 µL of 0.01 unit/µL BACE1 enzyme stock solution, 20 µL of 5% DMSO of test compound, 30 µL of sodium acetate buffer (pH 4.5), and 20 µL of 125 µM β-secretase substrate IV (Calbiochem®, San Diego, CA, USA) was incubated at 37 °C for 30 min. Fluorescence was then measured at Ex = 380 nm and Em = 510 nm using a SpectraMax Gemini EM™, San Jose, CA, USA [26, 61]. β-secretase inhibitor I (Anaspec®, Fremont, CA, USA) was used as a positive control, at a concentration of 100 µM. The experiments were performed in triplicate. For the compounds exerting inhibitory activities more than 20%, an IC50 value was further determined.

The target of the next data set is T2, amyloid-β (1-42) peptide (Homo sapiens, UniProt P05067).
T2 construct: 9 µL of 25 μM working solution of amyloid-β (1-42) peptide; purchased Anaspec, Fremont, CA, USA
T2 sequence (P05067 672-713 limits assumed): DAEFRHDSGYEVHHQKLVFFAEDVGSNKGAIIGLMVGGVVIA
Kind of data set: Amyloid aggregation inhibition assay (ThT). The data set is classed as biochemical. The method, then: The ascorbic derivatives ware evaluated for activities of amyloid β aggregation inhibition at a concentration of 400 µM. Briefly, in each well of transparent plate, 9 µL of 25 μM working solution of amyloid-β (1-42) peptide and 1 µL of test compound were gently mixed and then incubated in the dark at 37 °C for 48 h. After the incubation, 200 µL of 5 µM ThT (Sigma®, Saint Louis, MO, USA) in 50 mM Tris buffer (pH 7.4) was added to each well. Fluorescence was then measured at Ex = 446 nm and Em = 480 nm using a SpectraMax Gemini EM™, San Jose, CA, USA [26, 62]. Curcumin was used as a positive control, at a concentration of 100 µM.

In data set [1] the test system is P19-derived neurons. Kind of data set: Neuroprotective assay, serum-deprivation-induced oxidative stress (XTT). The data set is classed as cell-based. As to conditions: 1 nM, p > 0.05. The method, then:
(§1) P19 cells were grown in alpha minimal essential medium (α-MEM) supplemented with 7.5% newborn calf serum (NCS), 2.5% fetal bovine serum (FBS), and 1% antibiotics–antimycotic solution in a 5% CO2 humidified atmosphere at 37 °C. Cells in monolayer cultures were maintained in exponential growth by subculturing every two days.
Exponentially grown cultures were trypsinized and dissociated into single cells. P19 cells (2 × 10^6 cells/mL) were then suspended in 10 mL α-MEM supplemented with 5% FBS, 1% antibiotics–antimycotic solution, and 0.5 µM all transretinoic acid (RA) and seeded onto a 100-mm bacteriological culture dish. The cells formed large aggregates in suspension. After four days of RA treatment, the aggregates were dissociated by 5-mL glass measuring pipette and replated on poly-L-lysine-precoated multiwell plates (the multiwell plates were coated with 50 µg/mL poly-L-lysine, dissolved in PBS overnight, and sterilized under UV light for 30 min) at 7 × 10^4 cells/mL (150 µL/well in 96-well plate) in α-MEM supplemented with 10% FBS and 1% antibiotics–antimycotic solution and incubated for 24 h. […]
The assay was carried out with P19-derived neurons cultured in a 96-well plate by using the serum-deprivation method. […] Data were expressed as mean ± SEM (n = 3, each n was run in triplicate), with the medium as a control, representing 100% cell viability. […]
On the technique in general: Tetrazolium dyes change colour on reduction, which living cells bring about.

A short description of data set [2]: Antioxidant activity assay (DPPH). How it is done: […] The reaction was a mixture of 70 µL of DPPH solution (500 µM in 80% methanol), 10 µL of 80% methanol, and 20 µL of test compound. The reaction was incubated at room temperature in the dark for 30 min. The absorbance was then measured at 517 nm using Infinite 200 Pro™ (Tecan). Ascorbic acid was used as a positive control.
(Loss of DPPH colour is used to gauge radical scavenging.)

The subject of data set [3] is P19-derived neurons. Kind of data set: Viability assay (XTT) on P19-derived neurons. The data set is classed as cell-based. As to conditions: 18 h, nontoxic condition, versus 0.5% DMSO, derivatives at 1 nM. How it is done:
as §1
Exponentially grown cultures were trypsinized and dissociated into single cells. P19 cells (2 × 10^6 cells/mL) were then suspended in 10 mL α-MEM supplemented with 5% FBS, 1% antibiotics–antimycotic solution, and 0.5 µM all transretinoic acid (RA) and seeded onto a 100-mm bacteriological culture dish. The cells formed large aggregates in suspension. After four days of RA treatment, the aggregates were dissociated by 5-mL glass measuring pipette and replated on poly-L-lysine-precoated multiwell plates (the multiwell plates were coated with 50 µg/mL poly-L-lysine, dissolved in PBS overnight, and sterilized under UV light for 30 min) at 7 × 10^4 cells/mL (150 µL/well in 96-well plate) in α-MEM supplemented with 10% FBS and 1% antibiotics–antimycotic solution and incubated for 24 h. Cytosine-1-β-D-arabinoside or Ara-C (10 µM) was added at day 1 after plating, and the medium was changed every two to three days. The differentiated neuronal cells, P19-derived neurons, were used after day 14 of the differentiation process.
The assay was carried out on P19-derived neurons cultured in a 96-well plate. After 14 days of the differentiation process, the α-MEM, supplemented with 10% FBS, 10 μM Ara-C, and 1% antibiotics–antimycotic solution, was removed and DMSO solutions of the sample, diluted with α-MEM supplemented with 10% FBS and 1% antibiotics–antimycotic solution in the presence of 10 μM Ara-C, were added to produce the concentrations of 10,000, 1000, 100, 10, and 1 nM. A concentration of DMSO was added to the cultures at 0.5% v/v. […] The OD value was determined by using a microplate reader at 450 nm. Data were expressed as mean ± SEM (n = 3, each n was run in triplicate), with the medium as a control, representing 100% cell viability. […]

Each structure is given as a SMILES string.

T1 sequence (P56817 46-501): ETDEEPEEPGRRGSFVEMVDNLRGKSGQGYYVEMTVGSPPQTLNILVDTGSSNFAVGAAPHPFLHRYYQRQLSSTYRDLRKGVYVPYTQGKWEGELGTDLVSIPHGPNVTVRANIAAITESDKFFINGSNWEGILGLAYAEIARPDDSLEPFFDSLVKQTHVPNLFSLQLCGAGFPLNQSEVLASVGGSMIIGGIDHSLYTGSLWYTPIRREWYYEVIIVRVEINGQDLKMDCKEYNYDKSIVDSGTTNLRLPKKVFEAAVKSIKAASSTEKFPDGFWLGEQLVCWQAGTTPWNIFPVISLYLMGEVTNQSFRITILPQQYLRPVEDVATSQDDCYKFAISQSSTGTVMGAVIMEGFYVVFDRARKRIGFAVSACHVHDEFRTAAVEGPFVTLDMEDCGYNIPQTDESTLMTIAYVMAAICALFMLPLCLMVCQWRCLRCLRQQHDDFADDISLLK

Consider `O=C1O[C@H]([C@@H](O)COCc2cn(Cc3ccc(O)cc3)nn2)C(O)=C1O` [Compound 2a, (R)-3,4-Dihydroxy-5-((S)-1-hydroxy-2-((1-(4-hydroxybenzyl)-1H-1,2,3-triazol-4-yl)metho-xy)ethyl)furan-2(5H)-one], for which the inhibition at 400 µM on BACE1 is 6.8 ± 2.69%; against amyloid-β (1-42) peptide (at a concentration of 400 µM, ThT, 48 h, mean ± SEM, n = 3), 53 ± 0.6%. The values for the IC50 (against amyloid-β (1-42) peptide; in data set [2]) were 319 µM and 206 µM, respectively. The “neuroprotective activity compared with quercetin (positive control)” value in the data set with P19-derived neurons [1] is “no statistical differences”. In data set [2] (at a concentration of 400 µM, mean ± SEM, n = 3), the “Antioxidant %Inhibition (±SEM)” value turned out to be 66.54 ± 0.56 %. In addition, in the data set on P19-derived neurons [3], the “cytotoxicity / cell viability of P19-derived neurons” value is given as “significantly higher viability than 0.5% DMSO”.

The record behind these values is publication PMC7999550, “Novel Multifunctional Ascorbic Triazole Derivatives for Amyloidogenic Pathway Inhibition, Anti-Inflammation, and Neuroprotection” (Molecules, 2021).
